From the supplement of paper PMC4954754
± gives the uncertainty stated by the source.

What follows are compounds tested on HEK293T-Rex XBP1-RLuc (assay: maximal XBP1-RLuc activation from dose-response fit, relative to thapsigargin (% of thapsigargin); higher = stronger activation). Conditions: 18 h.
Experimental: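 Dose-response of hit compounds in HEK293T-Rex cells stably expressing ERSE-FLuc or XBP1-RLuc reporters, 18 hr treatment, 1536-well; luminescence normalised to 500 nM thapsigargin (100%) and DMSO (0%), fitted to give EC50 (M) and maximal activation; '>' marks EC50 above the top tested dose (~17 µM).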

| SMILES | maximal XBP1-RLuc activation |
| --- | --- |
| COc1cc(/C=C/c2ccc(O)c(OC)c2)ccc1O | 72.3 ± 8.1 |
| O=C(N/N=C/c1ccc(O)c(O)c1)c1ccc(Br)cc1 | 50.1 ± 4.6 |
| O=C(Nc1ccccc1O)c1ccc(NS(=O)(=O)c2cccc3cccnc23)cc1 | 21.8 ± 6.3 |
| O=C(N/N=C/c1ccc(Cl)cc1Cl)c1ccc(O)c(O)c1 | 47 ± 2.7 |
| COc1ccccc1OCC(=O)Nc1cc(C)ccc1O | 22.9 ± 1.1 |
| O=C(N/N=C\c1ccccc1[N+](=O)[O-])c1[nH]nc2c1CCc1ccccc1-2 | 5.31 ± 2.3 |
| CCCNC(=O)c1cc(-c2ccc(F)cc2)on1 | 11.7 ± 3.2 |
| O=C(c1ccccc1)c1c(O)ccc2c(C(=O)c3ccccc3)c(O)ccc12 | 34.9 ± 1.1 |
| COc1ccccc1-c1cc(C(=O)Nc2cc(C)ccc2O)no1 | 18 ± 2.5 |
| O=C(CCCN1CCC2(CC1)C(=O)N(Cc1cccc(F)c1)CN2c1ccccc1)c1ccc(F)cc1 | 214 ± 7.7 |
| O=C(NCCc1ccc(O)cc1)c1ccc2nc(-c3csc4ccccc34)sc2c1 | 105 ± 13 |
| O=c1/c(=C/c2ccc(O)c(O)c2)sc2nc3ccccc3n12 | 43.9 ± 5.4 |
| COc1cccc(C(=O)Nc2sc3c(c2C#N)CC(C)CC3)c1 (stereo not drawn) | 2.09 ± 1.1 |
| O=C(N/N=C/c1ccc(Cl)cc1)c1n[nH]c2c1CCCC2 | 6.88 ± 3.1 |
| COc1ccc2[nH]c3c(N4CCCCC4)ncnc3c2c1 | 9.73 ± 1.4 |
| O=C(Nc1ccc(O)cc1)c1ccc2ccccc2c1 | 16.2 ± 1.5 |
| N#CC1=C(N)Oc2c(ccc3ccccc23)C1c1ccsc1 (stereo not drawn) | 5.3 ± 5 |
| Cc1ccc(C(=O)Nc2sc3c(c2C#N)CCC3)cc1 | 2.39 ± 0.61 |
| CCCCCOc1ccc(N/C(N)=N/c2nc(C)cc(C)n2)cc1 | 152 ± 12 |
| CCCCCC(=O)Nc1ccc(C(=O)Nc2ccccc2O)cc1 | 21.2 ± 1.6 |
| O=C(Nc1ccccc1O)c1cc2ccccc2o1 | 20.1 ± 3.2 |
| Nc1ccccc1NC(=O)c1ccc(C(=O)Nc2ccccc2N)cc1 | 16.1 ± 6.4 |

| SMILES | maximal XBP1-RLuc activation |
| --- | --- |
| CCCCNNC(=O)c1ccc(Br)cc1 | 8.05 ± 3.5 |
| O=C(N/N=C/c1cccc(O)c1O)c1ccccc1I | 17.8 ± 3.8 |
| CCOc1ccc(/C=C(\C#N)c2[nH]nc(N)c2C#N)cc1OCC | 15.1 ± 1.6 |
| COc1cccc(-c2nc3ccc(N)cc3[nH]2)c1 | 14.7 ± 3.4 |
| COc1cc2ccccc2cc1C(=O)N/N=C/c1cccs1 | 5.33 ± 6.5 |
| Cc1ccc(O)c(NC(=O)c2cc(-c3ccc(O)cc3)on2)c1 | 30.8 ± 5.7 |
| CN(C)c1ccc(/C=N/NC(=O)c2cccc(Br)c2)cc1 | 2.34 ± 2 |
| O=C(CCCCCCC(=O)Nc1ccccc1)NO | 3.17 ± 2.9 |
| CC(=O)NC1C(OC2OC(CC(O)C3OC(n4ccc(=O)[nH]c4=O)C(O)C3O)C(O)C(O)C2NC(=O)/C=C\CCCCCCCCCC(C)C)OC(CO)C(O)C1O (stereo not drawn) | 45 ± 4.9 |
| CC(Oc1ccc(Cl)cc1Cl)C(=O)NNC(=O)c1ccc(O)c(O)c1 (stereo not drawn) | 45.2 ± 5.7 |
| Cc1ccc2c(N)c(C(=O)c3ccc4c(c3)OCO4)sc2n1 | 11.4 ± 3.8 |
| CCCNc1ccnc(N2CCc3ccccc3C2)n1 | 1.68 ± 0.28 |
| O=C(NCCc1ccccc1)c1cc(-c2cccs2)on1 | 8.27 ± 3.3 |
| Cc1ccc(O)c(NC(=S)NC(=O)/C=C/c2ccco2)c1 | 5.76 ± 1.5 |
| COc1cccc(-c2cc(C(=O)Nc3cc(C)ccc3O)no2)c1 | 19.1 ± 3.5 |
| Cc1ccc(O)c(NC(=O)CSc2n[nH]c(C)c2[N+](=O)[O-])c1 | 37.4 ± 7.3 |
| COc1cccc(/C=N/NC(=O)c2n[nH]c3c2CCCC3)c1 | 3.95 ± 0.69 |
| O=C(N/N=C/c1cccc(Cl)c1Cl)c1ccccc1O | 2.04 ± 0.65 |
| COc1ccc(-c2csc(-c3ccc(O)cc3)n2)cc1 | 33.9 ± 1.9 |
| N#C/C(=C/c1ccc(O)c(O)c1)c1nc2ccccc2[nH]1 | 20.7 ± 5.2 |
| COc1cccc(Nc2nc(-c3ccc(OC)c(F)c3)cs2)c1 | 3.68 ± 1.6 |
